# Test results reported in US20260365682A1, “MODULATORS OF TNF-ALPHA ACTIVITY” (Forward Therapeutics, Inc., priority 2022, published 2026).
# Read-outs that look alike come from different tables or passages of the source.
# Target: T1, TNF-α (Homo sapiens, UniProt P01375)
# T1 construct: purchased R&D 210-TA-020/CF
# Experiment: TNF-α Induced HEK Blue Cellular Assay (secreted alkaline phosphatase expression, QUANTI-Blue)
# Type: cell-based
# Conditions: HEK Blue TNFα reporter cells, TNF-α 100 μg/ml, 24 hrs at 37° C., inhibition of secreted alkaline phosphatase
# Summary of the method: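 Compound was serially diluted from […] to 0.5 nM final, then incubated with 10,000 HEK Blue TNFα reporter cells per well and […] TNF-α for 24 h at 37° C. SEAP output was read by QUANTI-Blue absorbance at 620 nm. Inhibition was background-corrected against DMSO controls with and without stimulation, and IC50 was fitted with a 4-parameter logistic equation.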
# T1 sequence (P01375 77-233 limits assumed): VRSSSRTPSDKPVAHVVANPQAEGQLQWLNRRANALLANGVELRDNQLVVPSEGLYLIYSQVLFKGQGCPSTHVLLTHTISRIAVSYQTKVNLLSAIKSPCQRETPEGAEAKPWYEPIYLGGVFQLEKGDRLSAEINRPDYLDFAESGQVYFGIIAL
Compound,IC50 (read-out: IC50 value),IC50 (IC50 value)
"[2H]C([2H])([2H])N1C(=O)c2cccc(OC(F)F)c2[C@H]2C[C@@H]1c1nc3ccc(C#CCN(C)C)cc3n12 [Example 61, (7R,14R)-1-(difluoromethoxy)-11-(3-(dimethylamino)prop-1-yn-1-yl)-6-(methyl-d3)-6,7-dihydro-7,14-methanobenzo[f]benzo[4,5]imidazo[1,2-a][1,4]diazocin-5(14H)-one]",0.1 to 1 µM,
"[2H]C([2H])([2H])N1C(=O)c2cccc(OC(F)F)c2[C@H]2C[C@@H]1c1nc3ccc(C#CC4CC4(F)F)cc3n12 (stereo partly drawn) [Example 196, (7R,14R)-11-((2,2-difluorocyclopropyl)ethynyl)-1-(difluoromethoxy)-6-(methyl-d3)-6,7-dihydro-7,14-methanobenzo[f]benzo[4,5]imidazo[1,2-a][1,4]diazocin-5(14H)-one]",0.1 to 1 µM,
"[2H]C([2H])([2H])N1C(=O)c2cccc(OC(F)F)c2[C@H]2C[C@@H]1c1nc3ccc(C#Cc4nnc(CNC)s4)cc3n12 [Example 46, (7R,14R)-1-(difluoromethoxy)-6-(methyl-d3)-11-((5-((methylamino)methyl)-1,3,4-thiadiazol-2-yl)ethynyl)-6,7-dihydro-7,14-methanobenzo[f]benzo[4,5]imidazo[1,2-a][1,4]diazocin-5(14H)-one]",0.1 to 1 µM,
"[2H]C([2H])([2H])N1C(=O)c2cccc(OC(F)F)c2[C@H]2C[C@@H]1c1nc3ccc(C#CCNC4CC4)cc3n12 [Example 241, (7R,14R)-11-(3-(cyclopropylamino)prop-1-yn-1-yl)-1-(difluoromethoxy)-6-(methyl-d3)-6,7-dihydro-7,14-methanobenzo[f]benzo[4,5]imidazo[1,2-a][1,4]diazocin-5(14H)-one]",,< 0.1 µM
"[2H]C([2H])([2H])N1C(=O)c2cccc(OC(F)F)c2[C@H]2C[C@@H]1c1nc3ccc(C#CC4(C(F)F)CC4)cc3n12 [Example 188, (7R,14R)-1-(difluoromethoxy)-11-((1-(difluoromethyl)cyclopropyl)ethynyl)-6-(methyl-d3)-6,7-dihydro-7,14-methanobenzo[f]benzo[4,5]imidazo[1,2-a][1,4]diazocin-5(14H)-one]",0.1 to 1 µM,
"[2H]C([2H])([2H])N1C(=O)c2cccc(OC(F)F)c2[C@H]2C[C@@H]1c1nc3ccc(C#CCOCC)cc3n12 [Example 43, (7R,14R)-1-(difluoromethoxy)-11-(3-ethoxyprop-1-yn-1-yl)-6-(methyl-d3)-6,7-dihydro-7,14-methanobenzo[f]benzo[4,5]imidazo[1,2-a][1,4]diazocin-5(14H)-one]",< 0.1 µM,
"[2H]C([2H])([2H])N1C(=O)c2cccc(OC(F)F)c2[C@H]2C[C@@H]1c1nc3ccc(C#CC4CCN(C(=O)C(C)(C)O)CC4)cc3n12 [Example 186, (7R,14R)-1-(difluoromethoxy)-11-((1-(2-hydroxy-2-methylpropanoyl)piperidin-4-yl)ethynyl)-6-(methyl-d3)-6,7-dihydro-7,14-methanobenzo[f]benzo[4,5]imidazo[1,2-a][1,4]diazocin-5(14H)-one]",< 0.1 µM,
"[2H]C([2H])([2H])N1C(=O)c2cccc(OC(F)F)c2[C@H]2C[C@@H]1c1nc3ccc(C#CCC4(O)COC4)cc3n12 [Example 81, (7R,14R)-1-(difluoromethoxy)-11-(3-(3-hydroxyoxetan-3-yl)prop-1-yn-1-yl)-6-(methyl-d3)-6,7-dihydro-7,14-methanobenzo[f]benzo[4,5]imidazo[1,2-a][1,4]diazocin-5(14H)-one]",0.1 to 1 µM,
"CCN1C(=O)c2cccc(OC(F)F)c2[C@H]2C[C@@H]1c1nc3ccc(C#Cc4cnn(C)c4)cc3n12 [Example 7, (1R,11R)-18-(difluoromethoxy)-12-ethyl-5-[2-(1-methylpyrazol-4-yl)ethynyl]-2,9,12-triazapentacyclo[9.8.1.0^{2,10}.0^{3,8}.0^{14,19}]icosa-3(8),4,6,9,14(19),15,17-heptaen-13-one]",< 0.1 µM,
"CN1C(=O)c2cccc(OC(F)F)c2[C@H]2C[C@@H]1c1nc3ccc(C#Cc4cnn(C)c4)cc3n12 [Example 1, (1R,11R)-18-(difluoromethoxy)-12-methyl-5-[2-(1-methylpyrazol-4-yl)ethynyl]-2,9,12-triazapentacyclo[9.8.1.0^∧{2,10}.0^∧{3,8}. 0^∧{14,19}]icosa-3(8),4,6,9,14(19),15,17-heptaen-13-one]",< 0.1 µM,
"[2H]C([2H])([2H])N1C(=O)c2cccc(OC(F)F)c2[C@H]2C[C@@H]1c1nc3ccc(C#CC4CN(C5COC5)C4C)cc3n12 (single isomer, unassigned) [Example 258, (7R,14R)-1-(difluoromethoxy)-6-(methyl-d3)-11-(((2R or 2S)-2-methyl-1-(oxetan-3-yl)azetidin-3-yl)ethynyl)-6,7-dihydro-7,14-methanobenzo[f]benzo[4,5]imidazo[1,2-a][1,4]diazocin-5(14H)-one]",< 0.1 µM,
"[2H]C([2H])([2H])N1C(=O)c2cccc(OC(F)F)c2[C@H]2C[C@@H]1c1nc3ccc(C#CCCC(C)C)cc3n12 [Example 94, (7R,14R)-1-(difluoromethoxy)-6-(methyl-d3)-11-(5-methylhex-1-yn-1-yl)-6,7-dihydro-7,14-methanobenzo[f]benzo[4,5]imidazo[1,2-a][1,4]diazocin-5(14H)-one]",< 0.1 µM,

# Continued, values first:
IC50 (read-out: IC50 value),IC50 (IC50 value),Compound
< 0.1 µM,,"[2H]C([2H])([2H])N1C(=O)c2cccc(OC(F)F)c2[C@H]2C[C@@H]1c1nc3ccc(C#CCCl)cc3n12 [Example 172, (7R,14R)-11-(3-chloroprop-1-yn-1-yl)-1-(difluoromethoxy)-6-(methyl-d3)-6,7-dihydro-7,14-methanobenzo[f]benzo[4,5]imidazo[1,2-a][1,4]diazocin-5(14H)-one]"
< 0.1 µM,,"[2H]C([2H])([2H])N1C(=O)c2cccc(OC(F)F)c2[C@H]2C[C@@H]1c1nc3ccc(C#CC)cc3n12 [Example 39, (7R,14R)-1-(difluoromethoxy)-6-(methyl-d3)-11-(prop-1-yn-1-yl)-6,7-dihydro-7,14-methanobenzo[f]benzo[4,5]imidazo[1,2-a][1,4]diazocin-5(14H)-one]"
< 0.1 µM,,"[2H]C([2H])([2H])N1C(=O)c2cccc(OC(F)F)c2[C@H]2C[C@@H]1c1nc3ccc(C#CC4CN(C(C)C(F)F)C4)cc3n12 (stereo partly drawn) [Example 238, (7R,14R)-1-(difluoromethoxy)-11-((1-(1,1-difluoropropan-2-yl)azetidin-3-yl)ethynyl)-6-(methyl-d3)-6,7-dihydro-7,14-methanobenzo[f]benzo[4,5]imidazo[1,2-a][1,4]diazocin-5(14H)-one]"
< 0.1 µM,,"[2H]C([2H])([2H])N1C(=O)c2cccc(OC(F)F)c2[C@H]2C[C@@H]1c1nc3ccc(C#CCCCO)cc3n12 [Example 83, (7R,14R)-1-(difluoromethoxy)-11-(5-hydroxypent-1-yn-1-yl)-6-(methyl-d3)-6,7-dihydro-7,14-methanobenzo[f]benzo[4,5]imidazo[1,2-a][1,4]diazocin-5(14H)-one]"
< 0.1 µM,,"[2H]C([2H])([2H])N1C(=O)c2cccc(OC(F)F)c2[C@H]2C[C@@H]1c1nc3ccc(C#CCCN4CCCC4)cc3n12 [Example 136, (7R,14R)-1-(difluoromethoxy)-6-(methyl-d3)-11-(4-(pyrrolidin-1-yl)but-1-yn-1-yl)-6,7-dihydro-7,14-methanobenzo[f]benzo[4,5]imidazo[1,2-a][1,4]diazocin-5(14H)-one]"
< 0.1 µM,,"[2H]C([2H])([2H])N1C(=O)c2cccc(OC(F)F)c2[C@H]2C[C@@H]1c1nc3ccc(C#CC4(C)CN(C(=O)C5CC5)C4)cc3n12 [Example 161, (7R,14R)-11-((1-(cyclopropanecarbonyl)-3-methylazetidin-3-yl)ethynyl)-1-(difluoromethoxy)-6-(methyl-d3)-6,7-dihydro-7,14-methanobenzo[f]benzo[4,5]imidazo[1,2-a][1,4]diazocin-5(14H)-one]"
< 0.1 µM,,"[2H]C([2H])([2H])N1C(=O)c2cccc(OC(F)F)c2[C@H]2C[C@@H]1c1nc3c(F)cc(C#CC4CC4)cc3n12 [Example 175, (7R,14R)-11-(cyclopropylethynyl)-1-(difluoromethoxy)-9-fluoro-6-(methyl-d3)-6,7-dihydro-7,14-methanobenzo[f]benzo[4,5]imidazo[1,2-a][1,4]diazocin-5(14H)-one]"
< 0.1 µM,,"CC1C(C#Cc2ccc3nc4n(c3c2)[C@@H]2C[C@H]4N(C)C(=O)c3cccc(OC(F)F)c32)CN1C1COC1 (single isomer, unassigned) [Example 257, (7R,14R)-1-(difluoromethoxy)-6-(methyl-d3)-11-(((2S or 2R)-2-methyl-1-(oxetan-3-yl)azetidin-3-yl)ethynyl)-6,7-dihydro-7,14-methanobenzo[f]benzo[4,5]imidazo[1,2-a][1,4]diazocin-5(14H)-one]"
< 0.1 µM,,"[2H]C([2H])([2H])N1C(=O)c2cccc(OC(F)F)c2[C@H]2C[C@@H]1c1nc3ccc(C#CC4CCN(C5COC5)C4)cc3n12 (stereo partly drawn) [Example 237, (7R,14R)-1-(difluoromethoxy)-6-(methyl-d3)-11-((1-(oxetan-3-yl)pyrrolidin-3-yl)ethynyl)-6,7-dihydro-7,14-methanobenzo[f]benzo[4,5]imidazo[1,2-a][1,4]diazocin-5(14H)-one]"
< 0.1 µM,,"[2H]C([2H])([2H])N1C(=O)c2cccc(OC(F)F)c2[C@H]2C[C@@H]1c1nc3ccc(C#CC(O)CC(F)(F)F)cc3n12 (stereo partly drawn) [Example 219, (7R,14R)-1-(difluoromethoxy)-6-(methyl-d3)-11-(5,5,5-trifluoro-3-hydroxypent-1-yn-1-yl)-6,7-dihydro-7,14-methanobenzo[f]benzo[4,5]imidazo[1,2-a][1,4]diazocin-5(14H)-one]"
< 0.1 µM,,"[2H]C([2H])([2H])N1C(=O)c2cccc(OC(F)F)c2[C@H]2C[C@@H]1c1nc3ccc(C#Cc4cncs4)cc3n12 [Example 32, (7R,14R)-1-(difluoromethoxy)-6-(methyl-d3)-11-(thiazol-5-ylethynyl)-6,7-dihydro-7,14-methanobenzo[f]benzo[4,5]imidazo[1,2-a][1,4]diazocin-5(14H)-one]"
